This is an account of results in patent publication US20080009470A1, “Acremonic Acid Derivatives” (priority 2003, published 2008).

Several values for one entry are separate records, joined by “and”; a condition that tells them apart may be missing. Identical values can stand only once.

The subject of experiment [1] is Enterococcus faecalis isolates. The experiment can be described thus: MIC, Agar Dilution / Micro Dilution Test (NCCLS). The experiment is classed as cell-based. To be noted: n=2. The source says: (§1) E.g., the compounds of the present invention show antimicrobial, e.g. antibacterial activity against gram positive bacteria and gram negative, such as Staphylococcus, e.g. S. aureus, MRSA (Methicillin Resistant S. aureus), MSSA (Methicillin Sensitive S. aureus), Enterococcus, e.g. E. faecalis, E. faecium, Moraxella, e.g. M. catarrhalis, in vitro in the Agar Dilution Test and/or Micro Dilution Test for bacteria according to National Committee for Clinical Laboratory Standards (NCCLS) 1993, • Document M7-A4, Vol. 20, No. 2, 2000: “Methods for dilution Antimicrobial Susceptibility Tests for Bacteria that Grow Aerobically”—Third Edition, Approved Standard”; and • Document M26-A, Vo. 19, No. 18, 1999: Methods for determining antibactericidal activity of antimicrobial agents, • Document M11-A3 for anaerobic bacteria, • in a concentration from about 0.1 to ca. 25.6 μg/ml, e.g. using strains including Staphylococcus aureus (ATCC 29213 and ATCC 29506); Enterococcus faecalis ATCC 29212; • and in vivo in the septicaemia mouse model, in accordance to the method description Nr. 159 A-5, approved by Austrian Health Authorities (MA 58, no. 2968/95 of Oct. 12, 1995), e.g. when administered at dosages from 0.05 to 50 mg/kg body weight.
(§2) Furthermore, the compound of example 1 is active against mupirocin-resistant staphylococci (n=26) with MICs below 0.5 μg/ml (range ≦0.125-0.5 μg/ml). Moraxella catarrhalis isolates (n=2) are inhibited at MICs of 0.2 and 0.4 μg/ml. The MICs for Enterococcus faecalis isolates (n=2) are 6.4 μg/ml and 12.8 μg/ml.
(In general: In agar dilution the substance is mixed into plates at graded concentrations.)

The test system of a further experiment is Enterococcus faecium. The experiment can be described thus: MIC, Agar Dilution / Micro Dilution Test (NCCLS). The experiment is classed as cell-based. To be noted: n=1.
From the text: as §1, §2

For experiment [2], the system named is Moraxella catarrhalis isolates. Put plainly: MIC, Agar Dilution / Micro Dilution Test (NCCLS). To be noted: n=2. The experiment is classed as cell-based.
From the text: as §1, §2

Experiment [3] concerns methicillin-sensitive Staphylococcus aureus (MSSA) strains. Put plainly: MIC, Agar Dilution / Micro Dilution Test (NCCLS). The experiment is classed as cell-based. The following applies: n=26, e.g. in the form of its sodium salt.
From the text: as §1, §2

Experiment [4] concerns mupirocin-resistant staphylococci. The experiment can be described thus: MIC, Agar Dilution / Micro Dilution Test (NCCLS). In kind it is cell-based. The following applies: n=26.
From the text: as §1, §2

The test system of experiment [5] is methicillin-resistant S. aureus (MRSA) strains. The experiment can be described thus: MIC, Agar Dilution / Micro Dilution Test (NCCLS). The experiment is classed as cell-based, Staphylococcus aureus. The following applies: e.g. in the form of its sodium salt. An excerpt:
E.g., the compounds of the present invention show antimicrobial, e.g. antibacterial activity against gram positive bacteria and gram negative, such as Staphylococcus, e.g. S. aureus, MRSA (Methicillin Resistant S. aureus), MSSA (Methicillin Sensitive S. aureus), Enterococcus, e.g. E. faecalis, E. faecium, Moraxella, e.g. M. catarrhalis, in vitro in the Agar Dilution Test and/or Micro Dilution Test for bacteria according to National Committee for Clinical Laboratory Standards (NCCLS) 1993, • Document M7-A4, Vol. 20, No. 2, 2000: “Methods for dilution Antimicrobial Susceptibility Tests for Bacteria that Grow Aerobically”—Third Edition, Approved Standard”; and • Document M26-A, Vo. 19, No. 18, 1999: Methods for determining antibactericidal activity of antimicrobial agents, • Document M11-A3 for anaerobic bacteria, • in a concentration from about 0.1 to ca. 25.6 μg/ml, e.g. using strains including Staphylococcus aureus (ATCC 29213 and ATCC 29506); Enterococcus faecalis ATCC 29212; • and in vivo in the septicaemia mouse model, in accordance to the method description Nr. […]
The compound of example 1 is a preferred compound of the present invention. It has, for example been determined that the minimum inhibitory concentration, e.g. MIC90 (μg/ml), of the compound of Example 1, e.g. in the form of its sodium salt, against, for example S. aureus (MRSA) is of about 0.2.

Experiment [6] has as its system S. aureus B29 (clinical isolate, MRSA). The experiment can be described thus: septicaemia mouse model. The experiment is classed as in vivo. The following applies: mice, survival on day 5, Probit analysis, e.g. sodium salt.
From the text: as §1
(§3) The ED50 values are calculated by Probit analysis of the administered dosages of compounds. Activity is determined by numbers of surviving animals per group of 8 or 6 mice, respectively, per dosage unit on day 5 after infection.

The subject of experiment [7] is Staphylococcus aureus (ATCC 49951, MSSA). The experiment can be described thus: septicaemia mouse model. In kind it is in vivo. The following applies: mice, treated orally 1 and 4 hours after infection; survival on day 5; Probit analysis; e.g. sodium salt; ranging from 5.54 to 13.34.
From the text: as §1, §3

Turning to “6-O-(2′-fluoroisobutyryl)-24, 25-dihydro-acremonic acid [Example 1]”, the MICs in experiment [1] is 6.4 µg/mL and 12.8 µg/mL; in experiment [2], 0.2 µg/mL and 0.4 µg/mL; in experiment [4], “below 0.5 μg/ml”. The MIC (in general, the least concentration at which growth counts as inhibited) in the experiment with Enterococcus faecium was 6.4 mg/L. The values for the MIC90 in experiment [3] and in experiment [5] (S. aureus (MRSA)) were 0.25 mg/L and “about 0.2 μg/ml”, respectively. The substance further gave an MIC range in experiment [4] of 0.125 to 0.5 mg/L. Moreover, the MIC50 (commonly the lowest concentration that inhibits either 50% of growth or 50% of the strains tested, depending on the study) in experiment [5] (MRSA strains, n=26) was 0.2 mg/L. Moreover, the ED50 entry is listed as “ca. 6.65 mg/kg body weight” in experiment [6] (treated orally 1 and 4 hours after infection, ranging from 4.25 to 11.98); “ca. 3.20 mg/kg body weight” in experiment [6] (treated subcutaneously 1 and 4 hours after infection, ranging from 1.93 to 5.85); “ca. 8.55 mg/kg body weight” in experiment [7].
